Data taken from the NIST ThermoML archive (doi:10.1016/j.tca.2013.08.017).
± gives the expanded uncertainty stated by the source.

Columns and labels:
[1] = 101.33 kPa, Crystal, X-ray diffraction
[2] = molar heat capacity at constant pressure; settings: 101.33 kPa, Small sample (50 mg) DSC

CC(C)(C)n1ncc2c(-c3ccccc3)n[nH]c(=O)c21
Settings	mass density [kg/m3]
[1], 296 K	1298 ± 6

[2], Crystal
Settings	molar heat capacity at constant pressure [J/K/mol]
273 K	944.5 ± 19
283 K	1034.5 ± 21
293 K	1124.7 ± 22
303 K	1216.4 ± 24
313 K	1310.8 ± 26
323 K	1409.1 ± 28
333 K	1512.5 ± 30
343 K	1622.1 ± 32
353 K	1739.2 ± 35
363 K	1865 ± 37
373 K	2000.7 ± 40
383 K	2147.5 ± 43
393 K	2306.5 ± 46
403 K	2479 ± 50
413 K	2666.2 ± 53
423 K	2869.3 ± 57

CC(C)(C)n1ncc2c(C(F)(F)F)n[nH]c(=O)c21
Settings	mass density [kg/m3]
[1], 293 K	1451 ± 7

[2]
Settings	molar heat capacity at constant pressure [J/K/mol]
273 K, Crystal	174 ± 3.5
283 K, Crystal	202.9 ± 4.1
293 K, Crystal	231.9 ± 4.6
303 K, Crystal	260.8 ± 5.2
313 K, Crystal	289.8 ± 5.8
323 K, Crystal	318.7 ± 6.4
333 K, Crystal	347.6 ± 7
343 K, Crystal	376.6 ± 7.5
353 K, Crystal	405.5 ± 8.1
363 K, Crystal	434.4 ± 8.7
373 K, Crystal	463.4 ± 9.3
383 K, Crystal	492.3 ± 9.8
393 K, Crystal	521.2 ± 10
403 K, Crystal	550.2 ± 11
413 K, Crystal	579.1 ± 12
423 K, Crystal	608.1 ± 12
448 K, Liquid	813.3 ± 16
458 K, Liquid	923.4 ± 18
463 K, Liquid	978.4 ± 20
